One may read the inhibition as the change of the read-out against control, counted positive when it falls.

Results on 2 compounds are retold here after ChEMBL document CHEMBL4507319 (2021).

Assay [1] addresses Histamine H3 receptor (Homo sapiens) (UniProt Q9Y5N1). Conditions: Compound concentration 10.0 uM.
Assay [2] addresses Dual specificity tyrosine-phosphorylation-regulated kinase 1A (Homo sapiens) (UniProt Q13627). In words: DYRK1A(h) Eurofins kinase panel. The settings on record: Compound concentration 1.0 uM.
Assay [3] addresses Dual specificity tyrosine-phosphorylation-regulated kinase 1B (Homo sapiens) (UniProt Q9Y463). Description: DYRK1B(h) Eurofins kinase panel. The settings on record: Compound concentration 1.0 uM.
Assay [4] deals with Receptor tyrosine-protein kinase erbB-4 (Homo sapiens) (UniProt Q15303). Description: ErbB4(h) Eurofins kinase panel. Conditions: Compound concentration 1.0 uM.
For assay [5], the target named is T1, Tyrosine-protein kinase ITK/TSK (Homo sapiens) (UniProt Q08881).
T1 sequence (whole entry): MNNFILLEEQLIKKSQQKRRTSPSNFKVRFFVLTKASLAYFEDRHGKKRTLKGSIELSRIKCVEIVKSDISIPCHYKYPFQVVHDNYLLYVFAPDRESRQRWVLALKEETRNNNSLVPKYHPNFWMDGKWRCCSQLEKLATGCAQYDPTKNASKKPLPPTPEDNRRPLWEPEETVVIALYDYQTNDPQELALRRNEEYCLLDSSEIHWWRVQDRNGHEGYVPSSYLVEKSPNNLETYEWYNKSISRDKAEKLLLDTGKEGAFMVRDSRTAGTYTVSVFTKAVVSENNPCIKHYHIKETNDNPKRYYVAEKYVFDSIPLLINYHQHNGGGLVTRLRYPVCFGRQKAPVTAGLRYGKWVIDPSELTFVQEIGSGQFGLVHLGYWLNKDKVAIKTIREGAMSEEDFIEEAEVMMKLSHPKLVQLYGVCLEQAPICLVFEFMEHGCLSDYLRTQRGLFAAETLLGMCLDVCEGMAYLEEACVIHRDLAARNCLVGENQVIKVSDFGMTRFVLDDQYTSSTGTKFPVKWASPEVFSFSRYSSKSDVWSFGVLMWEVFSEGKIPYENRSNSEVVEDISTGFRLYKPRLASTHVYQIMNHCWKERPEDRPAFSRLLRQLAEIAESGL
In words: Itk(h) Eurofins kinase panel. Conditions: Compound concentration 1.0 uM.

Assay [6] addresses Mitogen-activated protein kinase kinase kinase 10 (Homo sapiens) (UniProt Q02779). Description: MLK2(h) Eurofins kinase panel. The settings on record: Compound concentration 1.0 uM.
Assay [7] addresses T2, Serine/threonine-protein kinase Nek1 (Homo sapiens) (UniProt Q96PY6).
T2 sequence (whole entry): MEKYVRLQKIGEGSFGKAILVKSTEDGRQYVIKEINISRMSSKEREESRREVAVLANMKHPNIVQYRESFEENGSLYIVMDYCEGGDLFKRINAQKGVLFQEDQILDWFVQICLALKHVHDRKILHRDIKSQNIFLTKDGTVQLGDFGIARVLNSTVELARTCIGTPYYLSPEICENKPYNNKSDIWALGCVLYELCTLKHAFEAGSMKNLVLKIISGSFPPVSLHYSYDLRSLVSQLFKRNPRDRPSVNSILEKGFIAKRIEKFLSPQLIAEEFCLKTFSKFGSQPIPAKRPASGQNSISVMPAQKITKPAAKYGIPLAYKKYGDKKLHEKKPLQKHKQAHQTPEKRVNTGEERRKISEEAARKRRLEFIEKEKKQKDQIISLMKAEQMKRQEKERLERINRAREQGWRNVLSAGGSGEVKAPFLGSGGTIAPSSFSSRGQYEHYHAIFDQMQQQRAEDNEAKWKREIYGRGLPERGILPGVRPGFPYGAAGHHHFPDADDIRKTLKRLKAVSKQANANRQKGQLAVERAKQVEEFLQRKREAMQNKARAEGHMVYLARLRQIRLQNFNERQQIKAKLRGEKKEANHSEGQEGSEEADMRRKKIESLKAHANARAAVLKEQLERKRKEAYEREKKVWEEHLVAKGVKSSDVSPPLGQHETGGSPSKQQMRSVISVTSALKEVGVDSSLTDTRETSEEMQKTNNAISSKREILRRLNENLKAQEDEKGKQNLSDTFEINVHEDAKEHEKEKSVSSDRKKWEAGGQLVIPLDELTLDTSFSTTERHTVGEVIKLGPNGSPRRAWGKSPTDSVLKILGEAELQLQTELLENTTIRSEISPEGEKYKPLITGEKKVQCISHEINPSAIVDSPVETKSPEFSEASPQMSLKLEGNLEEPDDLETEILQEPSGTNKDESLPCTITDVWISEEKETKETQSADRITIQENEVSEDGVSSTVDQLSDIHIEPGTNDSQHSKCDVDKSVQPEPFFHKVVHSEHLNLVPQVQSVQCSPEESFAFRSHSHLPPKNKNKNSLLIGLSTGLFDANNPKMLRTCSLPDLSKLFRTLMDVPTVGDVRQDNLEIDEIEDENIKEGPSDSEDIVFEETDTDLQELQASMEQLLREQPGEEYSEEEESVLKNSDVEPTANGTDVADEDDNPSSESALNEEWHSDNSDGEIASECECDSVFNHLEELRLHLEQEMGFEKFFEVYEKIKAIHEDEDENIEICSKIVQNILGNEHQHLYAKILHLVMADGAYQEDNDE
In words: NEK1(h) Eurofins kinase panel. The settings on record: Compound concentration 1.0 uM.

Assay [8] addresses Serine/threonine-protein kinase pim-3 (Homo sapiens) (UniProt Q86V86). Description: Pim-3(h) Eurofins kinase panel. The settings on record: Compound concentration 1.0 uM.
The next assay relates to AMO1. In words: AMO-1 cell line Proliferation assay. The settings on record: time 3 day. Type of assay: functional, Homo sapiens.
The next assay has as its system LNCaP. Description: LNCaP cell line Proliferation assay. The settings on record: time 6 day. In kind it is functional, Homo sapiens.
The subject of the next assay is CWR22R. Description: 22Rv1 cell line Proliferation assay. Type of assay: functional, Homo sapiens. Conditions: time 6 day.

Sequence of Histamine H3 receptor (Homo sapiens) (Q9Y5N1 whole entry): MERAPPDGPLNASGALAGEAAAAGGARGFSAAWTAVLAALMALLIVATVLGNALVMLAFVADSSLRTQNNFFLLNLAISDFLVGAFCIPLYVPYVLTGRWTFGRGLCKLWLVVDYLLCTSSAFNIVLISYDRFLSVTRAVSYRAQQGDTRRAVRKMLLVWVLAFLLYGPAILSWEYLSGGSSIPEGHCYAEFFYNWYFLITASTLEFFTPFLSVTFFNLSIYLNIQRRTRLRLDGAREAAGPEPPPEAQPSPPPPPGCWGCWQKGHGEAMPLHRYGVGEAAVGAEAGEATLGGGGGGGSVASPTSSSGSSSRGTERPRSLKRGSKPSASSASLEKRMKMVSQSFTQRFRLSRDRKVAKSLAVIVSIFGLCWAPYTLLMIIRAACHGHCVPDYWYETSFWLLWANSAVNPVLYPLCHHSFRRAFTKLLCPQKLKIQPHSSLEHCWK
Sequence of Mitogen-activated protein kinase kinase kinase 10 (Homo sapiens) (Q02779 whole entry, looked up): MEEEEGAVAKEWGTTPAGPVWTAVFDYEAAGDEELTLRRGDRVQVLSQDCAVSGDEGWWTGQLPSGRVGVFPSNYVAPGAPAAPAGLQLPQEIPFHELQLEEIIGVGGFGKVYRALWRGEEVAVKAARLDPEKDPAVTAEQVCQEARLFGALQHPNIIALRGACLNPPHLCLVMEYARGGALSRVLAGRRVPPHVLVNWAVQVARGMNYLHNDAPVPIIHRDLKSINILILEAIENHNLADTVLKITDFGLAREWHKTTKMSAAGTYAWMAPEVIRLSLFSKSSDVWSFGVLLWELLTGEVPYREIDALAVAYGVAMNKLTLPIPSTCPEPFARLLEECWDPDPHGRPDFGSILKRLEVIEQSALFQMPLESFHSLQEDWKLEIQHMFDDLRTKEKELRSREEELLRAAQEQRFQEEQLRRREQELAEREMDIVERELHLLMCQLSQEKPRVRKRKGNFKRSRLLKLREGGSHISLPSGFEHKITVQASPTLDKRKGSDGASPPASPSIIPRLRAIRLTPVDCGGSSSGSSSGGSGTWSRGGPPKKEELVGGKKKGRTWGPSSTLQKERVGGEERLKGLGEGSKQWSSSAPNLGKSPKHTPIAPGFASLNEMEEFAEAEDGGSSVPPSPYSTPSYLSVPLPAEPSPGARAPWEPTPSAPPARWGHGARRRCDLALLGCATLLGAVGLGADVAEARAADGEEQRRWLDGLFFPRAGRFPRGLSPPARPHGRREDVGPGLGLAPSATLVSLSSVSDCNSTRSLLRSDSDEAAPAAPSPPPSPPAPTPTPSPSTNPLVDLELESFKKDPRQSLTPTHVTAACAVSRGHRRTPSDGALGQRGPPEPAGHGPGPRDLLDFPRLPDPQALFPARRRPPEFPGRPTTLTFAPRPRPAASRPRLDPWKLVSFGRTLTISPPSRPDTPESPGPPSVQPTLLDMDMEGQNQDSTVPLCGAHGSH
Sequence of Receptor tyrosine-protein kinase erbB-4 (Homo sapiens) (Q15303 whole entry): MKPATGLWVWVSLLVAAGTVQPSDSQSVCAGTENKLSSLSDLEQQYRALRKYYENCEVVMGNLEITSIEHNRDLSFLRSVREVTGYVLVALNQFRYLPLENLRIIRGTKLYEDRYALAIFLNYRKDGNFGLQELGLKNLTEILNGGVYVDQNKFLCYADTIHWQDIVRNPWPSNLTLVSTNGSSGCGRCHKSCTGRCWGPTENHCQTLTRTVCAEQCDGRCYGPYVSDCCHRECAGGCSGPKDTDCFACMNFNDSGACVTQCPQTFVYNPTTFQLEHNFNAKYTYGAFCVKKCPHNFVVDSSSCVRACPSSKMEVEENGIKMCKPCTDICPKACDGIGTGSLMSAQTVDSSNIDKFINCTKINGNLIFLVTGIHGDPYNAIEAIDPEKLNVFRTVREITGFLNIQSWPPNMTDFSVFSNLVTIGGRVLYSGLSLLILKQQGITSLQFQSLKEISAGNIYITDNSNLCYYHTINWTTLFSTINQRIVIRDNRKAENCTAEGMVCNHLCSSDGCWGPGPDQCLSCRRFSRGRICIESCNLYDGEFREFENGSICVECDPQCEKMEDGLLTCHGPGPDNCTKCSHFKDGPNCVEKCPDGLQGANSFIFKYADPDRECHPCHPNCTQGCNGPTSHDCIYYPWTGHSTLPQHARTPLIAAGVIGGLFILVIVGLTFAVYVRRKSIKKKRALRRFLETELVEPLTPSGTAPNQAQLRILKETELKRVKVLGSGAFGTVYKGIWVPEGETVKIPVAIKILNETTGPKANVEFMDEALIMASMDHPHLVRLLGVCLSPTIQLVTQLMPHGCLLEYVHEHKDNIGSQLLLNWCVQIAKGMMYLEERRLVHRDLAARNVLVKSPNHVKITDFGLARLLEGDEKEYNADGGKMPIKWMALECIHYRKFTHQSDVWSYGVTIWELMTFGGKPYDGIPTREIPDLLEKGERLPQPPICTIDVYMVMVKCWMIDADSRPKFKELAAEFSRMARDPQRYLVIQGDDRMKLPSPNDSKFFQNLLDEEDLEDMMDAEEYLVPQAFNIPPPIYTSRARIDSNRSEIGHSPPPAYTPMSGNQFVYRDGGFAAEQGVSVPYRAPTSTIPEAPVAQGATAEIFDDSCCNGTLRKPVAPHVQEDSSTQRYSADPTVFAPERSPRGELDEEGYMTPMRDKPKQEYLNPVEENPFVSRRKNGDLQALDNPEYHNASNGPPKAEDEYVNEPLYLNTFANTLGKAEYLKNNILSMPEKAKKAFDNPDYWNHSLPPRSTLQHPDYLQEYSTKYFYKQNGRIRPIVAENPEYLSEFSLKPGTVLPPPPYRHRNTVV
Sequence of Dual specificity tyrosine-phosphorylation-regulated kinase 1B (Homo sapiens) (Q9Y463 whole entry, looked up): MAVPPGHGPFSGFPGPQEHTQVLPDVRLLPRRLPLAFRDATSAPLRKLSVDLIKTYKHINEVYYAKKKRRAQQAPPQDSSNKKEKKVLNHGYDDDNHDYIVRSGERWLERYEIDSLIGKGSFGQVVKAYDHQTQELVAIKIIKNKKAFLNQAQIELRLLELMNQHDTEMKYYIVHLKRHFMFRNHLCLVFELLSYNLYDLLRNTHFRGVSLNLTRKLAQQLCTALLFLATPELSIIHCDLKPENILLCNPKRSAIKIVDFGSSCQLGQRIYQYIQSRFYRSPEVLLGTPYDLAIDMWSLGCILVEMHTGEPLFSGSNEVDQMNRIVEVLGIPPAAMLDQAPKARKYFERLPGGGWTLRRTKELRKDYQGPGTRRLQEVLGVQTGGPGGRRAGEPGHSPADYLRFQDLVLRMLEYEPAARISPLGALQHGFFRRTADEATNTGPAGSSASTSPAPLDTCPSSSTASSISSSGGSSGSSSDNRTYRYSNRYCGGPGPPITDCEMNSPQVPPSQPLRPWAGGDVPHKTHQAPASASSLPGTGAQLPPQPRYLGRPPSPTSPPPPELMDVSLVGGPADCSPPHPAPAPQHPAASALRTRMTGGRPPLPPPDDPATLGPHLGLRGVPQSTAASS

Turning to `CC1=C(C#N)C(c2ccc3c(c2)c(NC(=O)c2ccccc2C)nn3C)C(C#N)=C(C)N1` [BAY-974], the inhibition in assay [1] was 1.89%.
As to `CCc1ccccc1C(=O)Nc1n[nH]c2c(C)c(F)c(C3C(C#N)=C(C)N(C)C(C)=C3C#N)cc12` [BAY-3827], the % residual kinase activity in [2] is 107%; in assay [3], 99%; in assay [4], 101%; in assay [5], 106%; in assay [6] it was 94%; in assay [7] it was 102%. The % residual kinase activity in assay [8] was 108%. Moreover, the entries for the “Cell Proliferation IC50” value with AMO1, in the assay with LNCaP and in the assay with CWR22R were >33 µM, 0.28 µM and 5.55 µM, respectively.
